In patent publication US20250040539A1, “COMPOSITION COMPRISING AN ANTIMICROBIAL AGENT AND A CARBOXAMIDE” (BASF SE, priority 2021, published 2025):

Key:
Type in all cases: cell-based
[1] = tested on: fungal mix: Aspergillus brasiliensis DSM 1988, Rhodotorula mucilaginosa DSM 13621, Yarrowia lipolytica DSM 8218; assay: Preservative activity in a diluted non-ionic surfactant solution (1% Lutensol ON 70, pH 7.0) with 2-phenoxyethanol against fungal mix (Example 1.6); details: Surfactant solution + 0.81% PE, no amide (Comparative 2)
Text: A surfactant solution in phosphate buffer of pH 7.0 containing 1% by weight of Lutensol ON 70, a C10-fatty alcohol ethoxylated with 7EO, was used.
The samples were contaminated with a fungal mix consisting of: • Aspergillus brasiliensis DSM 1988 • Rhodotorula mucilaginosa DSM 13621 • Yarrowia lipolytica DSM 8218
The samples were inoculated with the fungal mix at day 0 and 7 to obtain 1-3×10E+05 CFU/ml inoculation in the test sample consisting of the above-defined surfactant solution and stored at 25° C. for 14 days. CFU was determined before re-inoculation at day 7, and on day 14.
Any CFU value at d7 and d14 obtained with a surfactant solution sample of the invention containing 2-phenoxyethanol and amide (surfactant solution+0.81% PE+0.09% of amide) lower than the respective value of the “comparative 2” example (surfactant solution+0.81% by weight of 2-phenoxyethanol) indicates a better performance of the inventive combination of 2-phenoxyethanol with the amide.

[2] = tested on: bacterial mix: Escherichia coli DSM 1576, Alcaligenes faecalis DSM 13644, Pseudomonas aeuginosa ATCC 15442, Staphylococcus aureus ATCC 6538, Burkholderia …; assay: Preservative activity of a basic composition (10% PG in water, pH 7) with 2-phenoxyethanol against bacterial contamination (Example 2.1); details: 10% PG + 0.4% PE, no amide (Comparative 2)
[3] = tested on: bacterial mix: Escherichia coli DSM 1576, Alcaligenes faecalis DSM 13644, Pseudomonas aeruginosa ATCC 15442, Staphylococcus aureus ATCC 6538, Burkholderia …; assay: Preservative activity in a manual dishwashing composition (MDW, pH 7.1) with 1.0% 2-phenoxyethanol against bacterial mix (Example 2.5); details: MDW + 1.0% PE, no amide (Comparative)
Procedure: A manual dish wash detergent (MOW) of pH 7.1 containing the following components was used:
The samples were contaminated with a bacterial mix consisting of: • Escherichia coli DSM 1576 • Alcaligenes faecalis DSM 13644 • Pseudomonas aeruginosa ATCC 15442 • Staphylococcus aureus ATCC 6538 • Burkholderia cepacia DSM 7288 • Pseudomonas putida DSM 12735
The samples were inoculated with the bacterial mix at day 0 and 7 to obtain 10E+06 to 10E+07 CFU/ml inoculation in the test sample and stored at 25° C. for 21 days. CFU was determined before re-inoculation at day 7 and on day 21.
Any CFU value at day 7 (d7) or day 21 (d21) obtained with a sample according to the invention containing 2-phenoxyethanol and amide (MDW+1.0% PE+1.0% Amide) lower than the respective value of the comparative example (MDW+1% by weight of 2-phenoxyethanol) indicates a better performance.

[4] = tested on: bacterial mix: Escherichia coli DSM 1576, Alcaligenes faecalis DSM 13644, Pseudomonas aeruginosa ATCC 15442, Staphylococcus aureus ATCC 6538, Burkholderia …; assay: Preservative activity of a basic composition (10% PG in water, pH 7) with 4,4'-dichloro-2-hydroxydiphenyl ether (diclosan) against bacterial contamination (Example 2.2); details: day 7
Procedure: (§1) An aqueous composition of pH 7 comprising 10% by weight of propyleneglycol (PG) as organic solvent, 0.015% by weight of 4,4′-dichloro-2-hydroxydiphenyl ether (diclosan) as antimicrobial and 0.04 or 0.1% by weight of the amides listed in the below table was tested for its preserving activity against bacterial contamination (the weight percentages relate to the total weight of the composition). For this purpose, the samples were contaminated with a bacterial mix consisting of: • Escherichia coli DSM 1576 • Alcaligenes faecalis DSM 13644 • Pseudomonas aeruginosa ATCC 15442 • Staphylococcus aureus ATCC 6538 • Burkholderia cepacia DSM 7288 • Pseudomonas putida DSM 12735
(§2) The samples were inoculated with the bacterial mix at day 0 to obtain 10E+06 to 10E+07 CFU/ml inoculation in the test sample and stored at 25° C. for 7 days.
(§3) CFU was determined at day 7.
Any CFU value at day 7 (d7) obtained with a sample according to the invention containing diclosan and amide (10% PG+0.015% diclosan+Amide in water) lower than the respective value of the “comparative 3” example (10% by weight of propyleneglycol+0.015% by weight of 4,4′-dichloro-2-hydroxydiphenyl ether (diclosan) in water) indicates a better performance.

[5] = tested on: bacterial mix: Escherichia coli DSM 1576, Alcaligenes faecalis DSM 13644, Pseudomonas aeruginosa ATCC 15442, Staphylococcus aureus ATCC 6538, Burkholderia …; assay: Preservative activity of a basic composition (10% PG in water, pH 7) with 1,2-benzisothiazol-3(2H)-one (BIT) against bacterial contamination (Example 2.3); details: day 7
Procedure: as §1, with “0.004%” for “0.015%”, “1,2-benzisothiazol-3(2H)-one (BIT)” for “4,4′-dichloro-2-hydroxydiphenyl ether (diclosan)”, “0.04%” for “0.04 or 0.1%”, “amide” for “amides”, “(the percentages are” for “(the”, “percent and” for “percentages”
as §2, §3
Any CFU value at day 7 (d7) obtained with a sample according to the invention containing BIT and amide (10% PG+0.004% BIT+Amide in water) lower than the respective value of the “comparative 2” example (10% by weight of propyleneglycol+0.004% by weight of 1,2-benzisothiazol-3(2H)-one (BIT) in water) indicates a better performance.

[6] = tested on: bacterial mix: Escherichia coli DSM 1576, Alcaligenes faecalis DSM 13644, Pseudomonas aeuginosa ATCC 15442, Staphylococcus aureus ATCC 6538, Burkholderia …; assay: Preservative activity of a basic composition (10% PG in water, pH 7) with 2-phenoxyethanol against bacterial contamination (Example 2.1); details: 10% PG + 0.36% PE + 0.04% amide
Procedure: as §1, with “0.36%” for “0.015%”, “2-phenoxyethanol (PE)” for “4,4′-dichloro-2-hydroxydiphenyl ether (diclosan)”, “0.04%” for “0.04 or 0.1%”, “amide” for “amides”, “aeuginosa” for “aeruginosa”
The samples were inoculated with the bacterial mix at day 0, 7 and 14 to obtain 10E+06 to 10E+07 CFU/ml inoculation in the test samples (compositions listed in the below table) consisting of 10% by weight of propylene glycol in water and stored at 25° C. for 21 days.
CFU was determined before re-inoculation at days 7 and 14, and on day 21.

Row | SMILES | d7 [CFU/ml] ([1]; day 7) | d14 [CFU/ml] ([1]; day 14) | d7 [CFU/ml] ([2]; day 7) | d14 [CFU/ml] ([2]; day 14) | d21 [CFU/ml] ([2]; day 21) | d7 [CFU/ml] ([3]; day 7) | d21 [CFU/ml] ([3]; day 21) | d7 [CFU/ml] ([4]; 10% PG + 0.015% diclosan + 0.1% amide) | d7 [CFU/ml] ([4]; 10% PG + 0.1% amide, no diclosan (Comparative 1b)) | d7 [CFU/ml] ([5]; 10% PG + 0.004% BIT + 0.04% amide) | d7 [CFU/ml] ([5]; 10% PG + 0.1% amide, no BIT (Comparative 1)) | d7 [CFU/ml] ([6]; day 7) | d14 [CFU/ml] ([6]; day 14) | d21 [CFU/ml] ([6]; day 21)
1 | OCCOc1ccccc1 [PE, 2-phenoxyethanol, reference compound] | 16,500 CFU/ml | 45,00 CFU/ml | 65,000 CFU/ml | >100,000 CFU/ml | >100,000 CFU/ml | 820 CFU/ml | 135 CFU/ml | – | – | – | – | – | – | –
2 | CCCCCCCCCC(=O)N(C)C [n-Decanoyl-N,N-dimethylamide] | – | – | – | – | – | – | – | 43,000 CFU/ml | >100,000 CFU/ml | 4,000 CFU/ml | >100,000 CFU/ml | <10 CFU/ml | <10 CFU/ml | <10 CFU/ml
